Reference: patent publication EP4707280A1, “1,4-CINEOLE DERIVATIVE AND INTERMEDIATE THEREOF, HERBICIDE CONTAINING SAID DERIVATIVE AS ACTIVE INGREDIENT, METHOD FOR USING HERBICIDE, AND METHOD FOR PREPARING AGROCHEMICAL COMPOSITION” (HOKKO CHEMICAL INDUSTRY CO., LTD., priority 2023, dated 2024)

Tests used:
Format in all cases: in vivo
[1] = test system: Echinochloa crus-galli; assay: Test Example 4: herbicidal effect test by stem and leaf treatment in upland field; conditions: 120 g per 10 ares, sprayed seven days after sowing, upland soil, 14 days after application; for inhibition at 1200 g/ha: Echinochloa crus-galli, read-out: weed inhibition rate
[2] = test system: Scirpus juncoides; assay: Test Example 1: herbicidal effect test by soil application in paddy rice; conditions: 120 g active ingredient per 10 ares, applied immediately after sowing, flooded pots, 14 days after application; for pest or weed control at 1200 g/ha: Schoenoplectiella juncoides, soil, 336 h, read-out: weed inhibition rate
Method in brief: (§1)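 Paddy soil in Wagner pots (1/10,000 acre) was fertilized (N:P:K 16:16:16) and puddled, then weed seeds were sown 0–1 cm deep, 30 each. Pots were flooded to ~3 cm and kept in a glass greenhouse. Emulsifiable concentrate diluted in water was dropped on immediately after sowing at 120 g a.i. per 10 ares.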

[3] = test system: Echinochloa crus-galli var. formosensis; assay: as above; conditions: 120 g active ingredient per 10 ares, applied immediately after sowing, flooded pots, 14 days after application; for pest or weed control at 1200 g/ha: Echinochloa crus-galli, soil, 336 h, read-out: weed inhibition rate
Method in brief: as §1

[4] = test system: Scirpus juncoides; assay: Test Example 2: herbicidal effect test by application during growth period of paddy rice; conditions: 120 g per 10 ares, applied seven days after sowing, flooded pots, 14 days after application; for inhibition at 1200 g/ha: Schoenoplectiella juncoides, read-out: weed inhibition rate
Method in brief: (§2)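 Weeds sown into puddled, flooded paddy soil received a post-emergence water application of emulsifiable concentrate at 120 g active ingredient per 10 ares, seven days after sowing. Herbicidal effect was rated 14 days later as inhibition (%).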

[5] = test system: Echinochloa crus-galli var. formosensis; assay: as above; conditions: 120 g per 10 ares, applied seven days after sowing, flooded pots, 14 days after application; for inhibition at 1200 g/ha: Echinochloa crus-galli, read-out: weed inhibition rate
Method in brief: as §2

[6] = test system: Digitaria ciliaris; assay: Test Example 3: herbicidal effect test by soil application in upland field; conditions: 120 g per 10 ares, sprayed one day after sowing, 14 days after application; for inhibition at 1200 g/ha: Digitaria ciliaris, read-out: weed inhibition rate
Method in brief: (§3)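 Pre-emergence test: seeds mixed into top 1 cm of alluvial loam upland soil in pots; emulsifiable concentrate diluted in water sprayed on soil one day after sowing at 100 L/10 a, 120 g a.i./10 a. Weed inhibition rate (%) scored at 14 days, in duplicate.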

[7] = test system: Echinochloa crus-galli; assay: as above; conditions: 120 g per 10 ares, sprayed one day after sowing, 14 days after application; for inhibition at 1200 g/ha: Echinochloa crus-galli, read-out: weed inhibition rate
Method in brief: as §3

[8] = test system: Digitaria ciliaris; assay: Test Example 4: herbicidal effect test by stem and leaf treatment in upland field; conditions: 120 g per 10 ares, sprayed seven days after sowing, upland soil, 14 days after application; for inhibition at 1200 g/ha: Digitaria ciliaris, read-out: weed inhibition rate

CC(C)[C@]12C=C[C@](C)(O1)[C@H](OCc1ccccn1)C2 [3-738, 2-[[(1S,2R,4R)-1-methyl-4-isopropyl-7-oxabicyclo[2.2.1]hept-5-en-2-yl]oxymethyl]pyridine]
≥ 80%: inhibition at 1200 g/ha [1] | pest or weed control at 1200 g/ha [2] | pest or weed control at 1200 g/ha [3] | inhibition at 1200 g/ha [4] | inhibition at 1200 g/ha [5] | inhibition at 1200 g/ha [6] | inhibition at 1200 g/ha [7] | inhibition at 1200 g/ha [8]

CC(C)[C@@]12C=C[C@@](C)(O1)[C@@H](OCc1ccccc1)C2 [3-748, (1S,4R,5S)-4-methyl-5-phenylmethoxy-1-isopropyl-7-oxabicyclo[2.2.1]hept-2-ene]
≥ 80%: inhibition at 1200 g/ha [1] | pest or weed control at 1200 g/ha [2] | pest or weed control at 1200 g/ha [3] | inhibition at 1200 g/ha [4] | inhibition at 1200 g/ha [5] | inhibition at 1200 g/ha [6] | inhibition at 1200 g/ha [7] | inhibition at 1200 g/ha [8]

Cc1ccccc1CO[C@H]1C[C@]2(C(C)C)C=C[C@@]1(C)O2 [3-749, (1S,4R,5S)-4-methyl-5-[(2-methylphenyl)methoxy]-1-isopropyl-7-oxabicyclo[2.2.1]hept-2-ene]
≥ 80%: inhibition at 1200 g/ha [1] | pest or weed control at 1200 g/ha [2] | pest or weed control at 1200 g/ha [3] | inhibition at 1200 g/ha [4] | inhibition at 1200 g/ha [5] | inhibition at 1200 g/ha [6] | inhibition at 1200 g/ha [7] | inhibition at 1200 g/ha [8]

CC(C)[C@]12C=C[C@](C)(O1)[C@H](OCc1c(Cl)cccc1Cl)C2 [3-732, (1R,4S,5R)-5-[(2,6-dichlorophenyl)methoxy]-4-methyl-1-isopropyl-7-oxabicyclo[2.2.1]hept-2-ene]
≥ 80%: inhibition at 1200 g/ha [1] | pest or weed control at 1200 g/ha [2] | pest or weed control at 1200 g/ha [3] | inhibition at 1200 g/ha [4] | inhibition at 1200 g/ha [5] | inhibition at 1200 g/ha [6] | inhibition at 1200 g/ha [7] | inhibition at 1200 g/ha [8]

CC(C)[C@@]12C=C[C@@](C)(O1)[C@@H](OCc1ccccc1F)C2 [3-750, (1S,4R,5S)-5-[(2-fluorophenyl)methoxy]-4-methyl-1-isopropyl-7-oxabicyclo[2.2.1]hept-2-ene]
≥ 80%: inhibition at 1200 g/ha [1] | pest or weed control at 1200 g/ha [2] | pest or weed control at 1200 g/ha [3] | inhibition at 1200 g/ha [4] | inhibition at 1200 g/ha [5] | inhibition at 1200 g/ha [6] | inhibition at 1200 g/ha [7] | inhibition at 1200 g/ha [8]

CC(=O)O[C@H]1C[C@]2(C)O[C@@]1(C(C)C)C[C@H]2OCc1ccccc1F (racemic) [1-480, [(1R,2S,4S,SR)-5-[(2-fluorophenyl)methoxy]-4-methyl-1-isopropyl-7-oxabicyclo[2.2.1]heptan-2-yl]acetate]
≥ 80%: weed inhibition rate [1] | weed inhibition rate [2] | weed inhibition rate [3] | weed inhibition rate [4] | weed inhibition rate [5] | weed inhibition rate [6] | weed inhibition rate [7] | weed inhibition rate [8]

CC(C)C12CC(OCc3ccsc3)C(C)(CC1Br)O2 (stereo not drawn) [1-1390, 5-bromo-1-methyl-4-isopropyl-2-(thiophen-3-ylmethoxy)-7-oxabicyclo[2.2.1]heptane]
≥ 80%: inhibition at 1200 g/ha [1] | pest or weed control at 1200 g/ha [2] | pest or weed control at 1200 g/ha [3] | inhibition at 1200 g/ha [4] | inhibition at 1200 g/ha [5] | inhibition at 1200 g/ha [6] | inhibition at 1200 g/ha [7] | inhibition at 1200 g/ha [8]

C#CCO[C@H]1C[C@]2(C)O[C@@]1(C(C)C)C[C@H]2OCc1ccccc1F [1-1607, (1S,2R,4R,5S)-2-[(2-fluorophenyl)methoxy]-1-methyl-4-isopropyl-5-prop-2-ynoxy-7-oxabicyclo[2.2.1]heptane]
≥ 80%: inhibition at 1200 g/ha [1] | pest or weed control at 1200 g/ha [2] | pest or weed control at 1200 g/ha [3] | inhibition at 1200 g/ha [4] | inhibition at 1200 g/ha [5] | inhibition at 1200 g/ha [6] | inhibition at 1200 g/ha [7] | inhibition at 1200 g/ha [8]

Cc1noc(C)c1CO[C@@H]1C[C@]2(C(C)C)O[C@@]1(C)C[C@@H]2I [1-790, 4-[[(1S,2R,4R,5S)-5-iodo-4-isopropyl-1-methyl-7-oxabicyclo [2.2.1]heptane-2-yl]oxymethyl]-3,5-dimethyl-isoxazole]
≥ 80%: pest or weed control at 1200 g/ha [2] | pest or weed control at 1200 g/ha [3] | inhibition at 1200 g/ha [4] | inhibition at 1200 g/ha [5]

CC(C)[C@]12C[C@@H](OCc3ccccc3OC(F)(F)F)[C@](C)(C[C@@H]1I)O2 [1-750, (1R,2S,4S,5R)-2-iodo-1-isopropyl-4-methyl-5-[[2-(trifluoromethoxy)phenyl]methoxy]-7-oxabicyclo[2.2.1]heptane]
≥ 80%: pest or weed control at 1200 g/ha [2] | pest or weed control at 1200 g/ha [3] | inhibition at 1200 g/ha [4] | inhibition at 1200 g/ha [5]

CC#CCO[C@@H]1C[C@]2(C(C)C)O[C@@]1(C)CC2Br (stereo partly drawn) [1-1336, (1S,2R,4R)-5-bromo-2-but-2-ynoxy-1-methyl-4-isopropyl-7-oxabicyclo[2.2.1]heptane]
≥ 80%: inhibition at 1200 g/ha [1] | pest or weed control at 1200 g/ha [2] | pest or weed control at 1200 g/ha [3] | inhibition at 1200 g/ha [4] | inhibition at 1200 g/ha [5] | inhibition at 1200 g/ha [6] | inhibition at 1200 g/ha [7] | inhibition at 1200 g/ha [8]

CC(C)C12CC(OCc3ccccc3C(F)(F)F)C(C)(CC1I)O2 (stereo not drawn) [1-1433, 2-iodo-1-isopropyl-4-methyl-5-[[2-(trifluoromethyl)phenyl]methoxy]-7-oxabicyclo[2.2.1]heptane]
≥ 80%: pest or weed control at 1200 g/ha [2] | pest or weed control at 1200 g/ha [3] | inhibition at 1200 g/ha [4] | inhibition at 1200 g/ha [5]

CC(C)[C@@]12C[C@H](OCc3ccccn3)[C@@](C)(C[C@H]1I)O2 [1-1126, 2-[[(1R,2S,4S,5R)-5-iodo-1-methyl-4-isopropyl-7-oxabicyclo[2.2.1]heptan-2-yl]oxymethyl]pyridine]
≥ 80%: inhibition at 1200 g/ha [1] | pest or weed control at 1200 g/ha [2] | pest or weed control at 1200 g/ha [3] | inhibition at 1200 g/ha [4] | inhibition at 1200 g/ha [5] | inhibition at 1200 g/ha [6] | inhibition at 1200 g/ha [7] | inhibition at 1200 g/ha [8]

Cc1noc(C)c1CO[C@@H]1C[C@]2(C(C)C)O[C@@]1(C)C[C@@H]2Cl [1-663, 4-[[(1S,2R,4R,5S)-5-chloro-4-isopropyl-1-methyl-7-oxabicyclo[2.2.1]heptan-2-yl]oxymethyl]-3,5-dimethyl-isoxazole]
≥ 80%: pest or weed control at 1200 g/ha [2] | pest or weed control at 1200 g/ha [3] | inhibition at 1200 g/ha [4] | inhibition at 1200 g/ha [5]
